Data published in patent US7407990B2, “Therapeutic Agents” (Knoll GmbH, priority 1999, dated 2008).

System: male rhesus monkeys (Macaca mulatta)
Test: Cocaine discrimination testing (Study 1), pretreatment protocol
Assay type: in vivo
Conditions: cocaine alone
Experimental: Subjects: The subjects are four male rhesus monkeys (Macaca mulatta), weighing 5.7-8.1 kg and maintained on a diet of 3-4 monkey biscuits and one piece of fresh fruit per day. During the week, all food is delivered after the experimental session, whereas at weekends, food is delivered between 9 a.m. and noon. Water is freely available at all times. The monkeys are housed in a humidity and temperature controlled room with a 12 h light-dark cycle (lights on from 7 a.m. to 7 p.m.). Apparatus: Each monkey is housed individually in a well-ventilated, stainless steel chamber (56×71×69 cm) which includes an operant panel (28×28 cm) mounted on the front wall. Three response keys are arranged in a horizontal row 3.2 cm from the top of the operant panel. Each key can be transilluminated by red or green stimulus lights (Superbright LEDs). An externally mounted pellet dispenser delivers 1 g fruit-flavoured food pellets to a food receptacle beneath the operant response panel. A computer, located in a separate room, controls the operant panels and data collection. […]
During each response period, 3 dependent variables are determined: • 1) Percent injection-appropriate responding prior to delivery of the first reinforcer. • 2) Percent injection-appropriate responding for the entire response period • 3) Response Rate.
Monkeys meeting the following criteria during the training day immediately proceeding the test day and in at least 6 of 7 consecutive training sessions before this are used for discrimination testing: • 1) the percent injection-appropriate responding prior to delivery of the first reinforcer is ≧80% for all cycles; • 2) the percent injection-appropriate responding for the entire cycle is ≧90% for all cycles; • 3) Response rates during saline training cycles are >0.5 responses per second. […] In this protocol, a cumulative dose-effect curve for cocaine (0.013-1.3 mg/kg) is determined either alone or following pretreatment with the test compound, which is administered 20 min before the first dose of cocaine. […]

Q: With `COC(=O)[C@H]1[C@@H](OC(=O)c2ccccc2)C[C@@H]2CC[C@H]1N2C.Cl` [cocaine, Cocaine hydrochloride] as the compound, how does the response rates (1.3 mg/kg) read?
A: usually decreases response rates

Q: And the cocaine-appropriate responding (cumulative 0.013-1.3 mg/kg, all four monkeys)?
A: dose-dependent increase in cocaine-appropriate responding

Q: And the “substitution for training stimulus” value (training dose 0.4 mg/kg, all monkeys)?
A: Complete substitution
